Structures can show the parent of a compound that is named as a salt.

For this assay, the target named is T1, human GPR40 (Homo sapiens, UniProt O14842).
T1 construct: expressed in transfected cells; host or cells: CHO cell line stably expressing human GPR40
T1 sequence (O14842 whole entry): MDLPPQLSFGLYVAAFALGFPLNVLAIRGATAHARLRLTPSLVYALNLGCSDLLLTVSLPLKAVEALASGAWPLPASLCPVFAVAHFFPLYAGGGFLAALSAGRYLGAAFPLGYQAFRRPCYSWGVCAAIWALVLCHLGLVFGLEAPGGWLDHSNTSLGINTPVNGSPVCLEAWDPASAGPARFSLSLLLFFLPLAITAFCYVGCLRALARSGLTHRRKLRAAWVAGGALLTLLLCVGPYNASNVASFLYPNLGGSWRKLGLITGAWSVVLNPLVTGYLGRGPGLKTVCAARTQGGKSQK
The assay is described as follows: Determination of EC50 for human GPR40: intracellular calcium change by FLIPR in CHO cells stably expressing human GPR40. The format is cell-based. The conditions noted are these: CHO cell line stably expressing human GPR40, changes in intracellular calcium concentration, Fluo3-AM, read-out: EC50 (Receptor Function Modulating Action On GPR40). On the procedure:
Determination of EC50 of the Compound of the Present Invention for Human GPR40
For determination of EC50, CHO cell line that stably expressed human GPR40 was used. Unless otherwise indicated, the CHO cell line was cultured using α-MEM medium (Invitrogen) containing 10% fetal calf serum (Invitrogen).
The cells cultured to nearly confluent were rinsed with PBS (Invitrogen) on the previous day of the assay, peeled off with 0.05% Trypsin-EDTA solution (Invitrogen) and recovered by centrifugation. The number of the obtained cells was counted, and the cells were diluted such that 3×10^5 cells were contained per 1 mL of the medium, dispensed to a black welled 96-well plate (coster) by 100 μL per well and cultured overnight in a CO2 incubator. Various test compounds were added to the CHO cells thus prepared, and the changes in the intracellular calcium concentration were measured using FLIPR (Molecular Device). The below-mentioned pre-treatment was applied to measure changes in the intracellular calcium concentration by FLIPR.
First, an assay buffer for adding a fluorescence dye Fluo3-AM (DOJIN) to the cells, or for washing the cells immediately before FLIPR assay was prepared. To a solution of HBSS (Invitrogen, 1000 mL) to which 1M HEPES (pH 7.4, DOJIN, 20 mL) added (hereinafter HBSS/HEPES solution) was added a solution (10 mL) obtained by dissolving probenecid (Sigma, 710 mg) in 1N NaOH (5 mL), and adding and mixing an HBSS/HEPES solution (5 mL), and the resulting solution was used as an assay buffer. Next, Fluo3-AM (50 μg) was dissolved in dimethylsulfoxide (Wako, 21 μL), and an equivalent amount of 20% pluronic acid (Molecular Probes) was added and mixed. The solution was added to the assay buffer (10.6 mL) supplemented with fetal vovine serum (105 μL) to give a fluorescence dye solution. The medium of the CHO cells inoculated to the black welled 96-well plate on the previous day of assay was removed, the fluorescence dye solution was immediately dispensed by 100 μL per well and the cells were cultured in a CO2 incubator for 1 hr to allow intake of the fluorescence dye by the cells. The cells after the culture were washed with the above-mentioned assay buffer and set on FLIPR. The test compound was diluted with dimethylsulfoxide in advance, dispensed to polypropylene 96-well plate (sample plate) by […], and cryopreserved at −20° C. To the thawed sample plate was added an assay buffer containing 0.015% CHAPS (DOJIN) by 198 μL, and simultaneously set on FLIPR together with the cell plate. After the aforementioned pre-treatment, changes in the intracellular calcium concentration upon addition of various test compounds as measured by FLIPR. Based on the results, a dose-response curve of each test compound was formed and EC50 was calculated.
Background: Calcium flux is commonly read through the fluorescence of an indicator in the cells.
For `Cc1cccc(C)c1-c1cccc(CNc2ccc(CCC(=O)O)cc2)c1` [Example 2, 3-(4-{[(2′,6′-dimethylbiphenyl-3-yl)methyl]amino}phenyl)propanoic acid], the EC50 is less than 10 nM.
To `O=C(O)CCc1ccc(NCc2ccc(Cn3c(-c4ccccc4)cc4ccccc43)cc2)cc1` [Example 12, 3-[4-({4-[(2-phenyl-1H-indol-1-yl)methyl]benzyl}amino)phenyl]propanoic acid hydrochloride] belongs less than 100 nM.
Regarding `O=C(O)CCc1ccc(NCc2ccc(CN(CCc3ccccc3)c3nc(-c4ccccc4)cs3)cc2)cc1` [Example 18, 3-{4-[(4-{[(2-phenylethyl)(4-phenyl-1,3-thiazol-2-yl)amino]methyl}benzyl)amino]phenyl}propanoic acid], the EC50 is less than 100 nM.
Consider `CCCN(Cc1ccc(CNc2ccc(CCC(=O)O)cc2)cc1)c1nc(-c2ccccc2)cs1` [Example 21, 3-{4-[(4-{[(4-phenyl-1,3-thiazol-2-yl)(propyl)amino]methyl}benzyl)amino]phenyl}propanoic acid], for which the EC50 was less than 100 nM.
Consider `Cc1ccc2ccccc2c1-c1cccc(CNc2ccc(CCC(=O)O)cc2)c1` [Example 26, 3-(4-{[3-(2-methyl-1-naphthyl)benzyl]amino}phenyl)propanoic acid hydrochloride], for which the EC50 is less than 100 nM.
To `Cc1cc(OCc2ccccc2)cc(C)c1-c1cccc(CNc2ccc(CCC(=O)O)cc2)c1` [Example 30, 3-[4-({[4′-(benzyloxy)-2′,6′-dimethylbiphenyl-3-yl]methyl}amino)phenyl]propanoic acid hydrochloride] belongs less than 100 nM; to `Cc1cc(OCC2CC2)cc(C)c1-c1cccc(CNc2ccc(CCC(=O)O)cc2)c1` [Example 33, 3-[4-({[4′-(cyclopropylmethoxy)-2′,6′-dimethylbiphenyl-3-yl]methyl}amino)phenyl]propanoic acid hydrochloride], less than 100 nM.
To `CCOCCOc1cc(C)c(-c2cccc(CNc3ccc(CCC(=O)O)cc3)c2)c(C)c1` [Example 37, 3-[4-({[4′-(2-ethoxyethoxy)-2′,6′-dimethylbiphenyl-3-yl]methyl}amino)phenyl]propanoic acid hydrochloride] belongs less than 100 nM.
Regarding `CCOCCOc1cc(C)c(-c2cccc(CNc3ccc(CCC(=O)O)c(F)c3)c2)c(C)c1` [Example 40, 3-[4-({[4′-(2-ethoxyethoxy)-2′,6′-dimethylbiphenyl-3-yl]methyl}amino)-2-fluorophenyl]propanoic acid hydrochloride], the EC50 was less than 100 nM.
To `O=C(O)CCc1ccc(NCc2ccc(Cn3nc(-c4ccccc4)cc3-c3ccccc3)cc2)cc1` [Example 44, 3-[4-({4-[(3,5-diphenyl-1H-pyrazol-1-yl)methyl]benzyl}amino)phenyl]propanoic acid] belongs less than 100 nM.
For `Cn1ncc(COc2ccc(CNc3ccc(CCC(=O)O)cc3)cc2)c1-c1ccc(F)cc1` [Example 47, 3-{4-[(4-{[5-(4-fluorophenyl)-1-methyl-1H-pyrazol-4-yl]methoxy}benzyl)amino]phenyl}propanoic acid] the value was less than 1000 nM; for `CCOCCOc1cc(C)c(-c2cccc(CNc3ccc(OCC(=O)O)cc3)c2)c(C)c1` [Example 67, [4-({[4′-(2-ethoxyethoxy)-2′,6′-dimethylbiphenyl-3-yl]methyl}amino)phenoxy]acetic acid], less than 100 nM.
With `CCOCCOc1ccc(-c2cc(CNc3ccc(CCC(=O)O)cc3)ccc2OCc2ccccc2)cc1` [Example 70, 3-[4-({[6-(benzyloxy)-4′-(2-ethoxyethoxy)biphenyl-3-yl]methyl}amino)phenyl]propanoic acid], the EC50 is less than 100 nM.
For `CCOCCOc1cc(C)c(-c2cccc(CNc3ccc4c(c3)OCC4CC(=O)O)c2)c(C)c1` (stereo not drawn) [Example 86, [6-({[4′-(2-ethoxyethoxy)-2′,6′-dimethylbiphenyl-3-yl]methyl}amino)-2,3-dihydro-1-benzofuran-3-yl]acetic acid hydrochloride], the EC50 was less than 100 nM.
For `CCN(CC)C(=O)COc1cc(C)c(-c2cccc(CNc3ccc(CCC(=O)O)c(F)c3)c2)c(C)c1` [Example 98, 3-{4-[({4′-[2-(diethylamino)-2-oxoethoxy]-2′,6′-dimethylbiphenyl-3-yl}methyl)amino]-2-fluorophenyl}propanoic acid] the value was less than 100 nM; for `Cc1cc(OCC(=O)O)cc(C)c1-c1cccc(CNc2ccc(CCC(=O)O)c(F)c2)c1` [Example 100, 3-[4-({[4′-(carboxymethoxy)-2′,6′-dimethylbiphenyl-3-yl]methyl}amino)-2-fluorophenyl]propanoic acid], less than 1000 nM; for `Cc1cccc(C)c1-c1cc(CNc2ccc(CCC(=O)O)c(F)c2)cc(OCc2ccccc2)c1` [Example 105, 3-[4-({[5-(benzyloxy)-2′,6′-dimethylbiphenyl-3-yl]methyl}amino)-2-fluorophenyl]propanoic acid methanesulfonate], less than 100 nM.
For the compound `CC(C)(C)c1cc(-c2ccccc2)n(Cc2ccc(CNc3ccc(CCC(=O)O)c(F)c3)cc2)n1` [Example 107, 3-[4-({4-[(3-tert-butyl-5-phenyl-1H-pyrazol-1-yl)methyl]benzyl}amino)-2-fluorophenyl]propanoic acid], the 50% effective concentration (EC50) was less than 100 nM.
To `CC(C)(C)c1cc(CCc2ccccc2)n(Cc2ccc(CNc3ccc(CCC(=O)O)c(F)c3)cc2)n1` [Example 113, 3-{4-[(4-{[3-tert-butyl-5-(2-phenylethyl)-1H-pyrazol-1-yl]methyl}benzyl)amino]-2-fluorophenyl}propanoic acid methanesulfonate] belongs less than 100 nM; to `CCOCCOc1cc(C)c(-c2cccc(CNc3ccc(CC(F)(F)C(=O)O)cc3)c2)c(C)c1` [Example 117, 3-[4-({[4′-(2-ethoxyethoxy)-2′,6′-dimethylbiphenyl-3-yl]methyl}amino)phenyl]-2,2-difluoropropanoic acid], less than 100 nM; to `CCOCCOc1cc(C)c(-c2cccc(CNc3ccc(CCC(=O)O)cn3)c2)c(C)c1` [Example 120, 3-[6-({[4′-(2-ethoxyethoxy)-2′,6′-dimethylbiphenyl-3-yl]methyl}amino)pyridin-3-yl]propanoic acid methanesulfonate], less than 100 nM.
Regarding `Cc1cc(OS(C)(=O)=O)cc(C)c1-c1cccc(CNc2ccc(CCC(=O)O)c(F)c2)c1` [Example 123, 3-{4-[({2′,6′-dimethyl-4′-[(methylsulfonyl)oxy]biphenyl-3-yl}methyl)amino]-2-fluorophenyl}propanoic acid], the EC50 is less than 100 nM.
As for `CCOCCOc1ccc(-c2cc(CNc3ccc(CCC(=O)O)cc3)ccc2OC(C)C)cc1` [Example 127, 3-[4-({[4′-(2-ethoxyethoxy)-6-isopropoxybiphenyl-3-yl]methyl}amino)phenyl]propanoic acid], the EC50 was less than 100 nM.
As to `Cc1ccc(COc2ccc(CNc3ccc(CCC(=O)O)c(F)c3)cc2CC(C)C)cc1` [Example 131, 3-[2-fluoro-4-({3-isobutyl-4-[(4-methylbenzyl)oxy]benzyl}amino)phenyl]propanoic acid], the EC50 was less than 100 nM.
For `CCOCCOc1ccc(-c2cc(CNc3ccc(CCC(=O)O)c(F)c3)cc3c2OC(C)(C)C3)cc1` [Example 136, 3-{4-[({7-[4-(2-ethoxyethoxy)phenyl]-2,2-dimethyl-2,3-dihydro-1-benzofuran-5-yl}methyl)amino]-2-fluorophenyl}propanoic acid methanesulfonate] the value was less than 100 nM.
`CC(C)COc1ccc(CNc2ccc(CCC(=O)O)cc2)cc1CN1c2ccccc2C=CC1(C)C` [Example 138, 3-[4-({3-[(2,2-dimethylquinolin-1(2H)-yl)methyl]-4-isobutoxybenzyl}amino)phenyl]propanoic acid]: the EC50 was less than 1000 nM.
For `CCS(=O)(=O)CCOc1cc(C)c(-c2cccc(CNc3ccc(CCC(=O)O)c(F)c3)c2)c(C)c1` [Example 146, 3-{4-[({4′-[2-(ethylsulfonyl)ethoxy]-2′,6′-dimethylbiphenyl-3-yl}methyl)amino]-2-fluorophenyl}propanoic acid methanesulfonate] the value was less than 100 nM.

Broadly, the EC50 is the concentration needed to bring the measured effect to its halfway point.

(Values after patent publication US7786165B2, “Aminophenylpropanoic acid derivative” (Takeda Pharmaceutical Company Limited, priority 2004, dated 2010).)
